Results taken from ChEMBL document CHEMBL3507680, “University of Dundee, Gates Library screen for HepG2 cell viability”.

Assay: Human HepG2 cell viability assay in 384 well format
Type: toxicity, cell-based
Design: dose 125 nL, time 70.5 hour; concentration not given beside the values
Details: HepG2 cells, read-out: Inhibition

Compound | cytotoxicity at 70.5 h
Nc1nccc(C2CN(Cc3ccc(-c4ccccc4C(=O)O)o3)C2)n1 | 2.9%
CN(c1cccnn1)[C@@H]1CC[C@@H]2CN(Cc3cccc(C(=O)O)c3)C[C@@H]21 | -6.81%
CC1(C(N)=O)CN(CC2CCC2)CCO1 (stereo not drawn) | -2.2%
Cc1nn(C)c(C)c1-c1ccc(=O)n(C(C)C(=O)NC(C)(C)C)n1 (stereo not drawn) | 3.31%
Cn1ccnc1C(O)c1ccccc1N1CCN(Cc2cccs2)CC1 (stereo not drawn) | -0.023%
CCc1cc(O)n2nc(C3CCN(C(=O)c4ccccn4)CC3)cc2n1 | -0.453%
Cc1ncc(C(=O)N2CC(C(=O)N3CCCCCC3)C2)c(C)n1 | -4.02%
CCOc1cc([C@@H]2N[C@H](c3nccs3)Cc3ccsc32)ccc1OC | -3%
CCC1CCCCN1C(=O)Cn1nc(-c2cc(C)oc2C)cc(N)c1=O (stereo not drawn) | -3.58%
CC(C)NC(=O)[C@@H]1CN(C(=O)C2CC2)C[C@]12Cc1ccccc1C(=O)N2 | -3.78%
CC(=O)N1CCOCC(Cc2ccc3c(ccn3C)c2)C1 (stereo not drawn) | -0.747%
Cc1noc(C)c1-c1cc(CCC2CN(C(=O)CN)CCO2)ncn1 (stereo not drawn) | -2.94%
Cc1cc2ncc(CN(C)C)c(C3CCN(C)CC3)n2n1 | 13.7%
COC(=O)c1cccc(C2CNCCN2C(C)=O)c1 (stereo not drawn) | 21.6%
CC(=O)N1CCC(c2c(CN(C)C)cnc3cc(C)nn23)CC1 | 15.7%
Nc1cc(-c2c[nH]nc2C2CCCN2S(=O)(=O)c2ccccc2)ccn1 (stereo not drawn) | -2.78%
CN1CCCC(c2nnc3n2CCN(S(=O)(=O)c2ccccc2Cl)C3)C1 (stereo not drawn) | -9.93%
Nc1ncnc2nc(C3CCN(C(=O)Cc4ccc(F)cc4)C3)ccc12 (stereo not drawn) | -9.46%
CCC(=O)N1CCc2c(O)nc(C3CCCCN3C(=O)C3CC3)nc2C1 (stereo not drawn) | -3.59%
O=C1NC2(CCc3ccccc31)CCN(C(=O)c1cccnc1)C2 (stereo not drawn) | -13%
CCC(=O)N1CCCCC1c1nc(O)c2c(n1)CN(C(=O)C1CC1)CC2 (stereo not drawn) | -7.02%
CCC(=O)N1CCCCC1c1nc(O)c2c(n1)CN(S(=O)(=O)CC)CC2 (stereo not drawn) | -13.9%

Compound | cytotoxicity at 70.5 h
Cc1c[nH]nc1C1CN(Cc2cnn(-c3ccccc3C(=O)O)c2)C1 | -6.87%
CCCn1cc(Cl)c(C(=O)N2C[C@@H](O)[C@H](NC(C)=O)C2)n1 | -8.89%
CNc1cncc(C2CCCN2Cc2ccnc(N3CCCC3)n2)n1 (stereo not drawn) | 16.1%
O=S(=O)(c1cccs1)N1CCCCC1c1ccn[nH]1 (stereo not drawn) | -2.26%
Cc1c[nH]nc1C1CCCCN1C(=O)CC1(O)CCCCC1 (stereo not drawn) | -8.79%
Cc1ncsc1CN1C[C@@H](O)[C@](O)(CNC(=O)c2ccccn2)C1 | -10.6%
COc1ccc(CN2C[C@@H](O)[C@](O)(CNC(=O)c3ccccn3)C2)cc1 | -7.06%
CC(=O)N1C[C@@H](c2ccsc2)[C@@H]2CN(Cc3ccccc3C)CC[C@@H]21 | 18.9%
COc1cccc(CN2CCC(c3nnc(-c4cnc(C)cn4)o3)C2)c1 (stereo not drawn) | -13.5%
Cc1nc(Nc2nnc(C)s2)cc(C2CCCN2C)n1 (stereo not drawn) | 7.92%
CCc1nc(-c2cncnc2C2CCCNC2)no1 (stereo not drawn) | -1.26%
FC(F)CNc1cnc(C2CCCN2)cn1 (stereo not drawn) | 3.12%
COc1cccc(Nc2nc(C3CCNCC3)c3sc(C)c(C)n23)c1 | -7.32%
Cc1sc2c(C3CCCNC3)nc(Nc3cccc(F)c3)n2c1C (stereo not drawn) | -5.08%
COc1cccc(Nc2nc(C3CCCNC3)c3ccccn23)c1 (stereo not drawn) | -7.29%
Cc1sc2c(C3CCNCC3)nc(Nc3cccc(F)c3)n2c1C | 15.7%
COc1cccc(-c2noc(C3CCN(Cc4ccccc4F)C3)n2)c1 (stereo not drawn) | 38.2%
COc1cccc(-c2noc(C3CCN(Cc4ccc(C)cc4)C3)n2)c1 (stereo not drawn) | 23.2%
COc1cccc(-c2noc(C3CCN(Cc4ccccc4C)C3)n2)c1 (stereo not drawn) | 13.9%
Cc1cccc(Nc2cc(C3CCCN(CC(N)=O)C3)ccn2)n1 (stereo not drawn) | 22.5%
COc1ccc(OCCc2cc(C3CCN(CC(C)C)C3)n[nH]2)cc1 (stereo not drawn) | -2.33%
